Data reported in US7396853B2, “2-phenyl-3,3,3-trifluoro-2-hydroxy-propionic acid derivatives” (Hoffmann-La Roche Inc., priority 2005, dated 2008).

Columns and labels:
[1] = target: T1, human GABABR1aR2a (Homo sapiens, UniProt O75899+Q9UBS5); experiment: Intracellular Ca2+ mobilization assay in CHO-GABABR1aR2a-Gα16 cell (enhancer concentration-response at 10 nM GABA); format: cell-based; conditions: for EC50: enhancer potency in presence of 10 nM GABA (EC10), CHO cells expressing human GABABR1aR2a and Gα16; for Emax: maximum enhancing effect in presence of 10 nM GABA (EC10), normalized to 10 μM GABA alone = 100%, 10 nM GABA alone = 0%, enhancer 0.001-30 μM applied 15 min before GABA
T1 construct: expressed in transfected cells
T1 sequence (Q9UBS5 15-961 limits assumed): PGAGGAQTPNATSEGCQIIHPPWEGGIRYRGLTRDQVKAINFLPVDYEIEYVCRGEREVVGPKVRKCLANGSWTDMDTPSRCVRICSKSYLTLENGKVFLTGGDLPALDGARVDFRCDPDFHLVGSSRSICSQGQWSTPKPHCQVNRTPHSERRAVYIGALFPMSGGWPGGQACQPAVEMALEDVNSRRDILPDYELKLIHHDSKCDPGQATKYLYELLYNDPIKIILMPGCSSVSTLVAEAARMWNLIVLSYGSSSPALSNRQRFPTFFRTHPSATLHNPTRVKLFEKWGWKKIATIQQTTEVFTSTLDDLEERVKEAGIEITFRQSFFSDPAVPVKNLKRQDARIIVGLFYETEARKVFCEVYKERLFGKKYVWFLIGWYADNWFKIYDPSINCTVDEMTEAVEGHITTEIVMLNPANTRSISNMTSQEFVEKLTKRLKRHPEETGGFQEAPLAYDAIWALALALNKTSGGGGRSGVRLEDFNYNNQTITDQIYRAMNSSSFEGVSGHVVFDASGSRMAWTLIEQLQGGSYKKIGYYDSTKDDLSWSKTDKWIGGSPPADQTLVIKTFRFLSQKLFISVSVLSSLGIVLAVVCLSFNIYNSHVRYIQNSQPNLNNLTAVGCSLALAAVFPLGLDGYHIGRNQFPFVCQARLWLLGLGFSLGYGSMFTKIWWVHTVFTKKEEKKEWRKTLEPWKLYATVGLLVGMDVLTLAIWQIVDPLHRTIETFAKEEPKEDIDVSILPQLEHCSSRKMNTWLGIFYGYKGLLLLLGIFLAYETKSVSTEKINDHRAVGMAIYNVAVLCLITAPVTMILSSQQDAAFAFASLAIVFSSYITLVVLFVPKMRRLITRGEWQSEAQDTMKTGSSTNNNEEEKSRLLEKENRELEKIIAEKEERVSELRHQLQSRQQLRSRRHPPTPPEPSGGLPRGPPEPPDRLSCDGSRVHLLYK
T1 sequence (O75899 42-941): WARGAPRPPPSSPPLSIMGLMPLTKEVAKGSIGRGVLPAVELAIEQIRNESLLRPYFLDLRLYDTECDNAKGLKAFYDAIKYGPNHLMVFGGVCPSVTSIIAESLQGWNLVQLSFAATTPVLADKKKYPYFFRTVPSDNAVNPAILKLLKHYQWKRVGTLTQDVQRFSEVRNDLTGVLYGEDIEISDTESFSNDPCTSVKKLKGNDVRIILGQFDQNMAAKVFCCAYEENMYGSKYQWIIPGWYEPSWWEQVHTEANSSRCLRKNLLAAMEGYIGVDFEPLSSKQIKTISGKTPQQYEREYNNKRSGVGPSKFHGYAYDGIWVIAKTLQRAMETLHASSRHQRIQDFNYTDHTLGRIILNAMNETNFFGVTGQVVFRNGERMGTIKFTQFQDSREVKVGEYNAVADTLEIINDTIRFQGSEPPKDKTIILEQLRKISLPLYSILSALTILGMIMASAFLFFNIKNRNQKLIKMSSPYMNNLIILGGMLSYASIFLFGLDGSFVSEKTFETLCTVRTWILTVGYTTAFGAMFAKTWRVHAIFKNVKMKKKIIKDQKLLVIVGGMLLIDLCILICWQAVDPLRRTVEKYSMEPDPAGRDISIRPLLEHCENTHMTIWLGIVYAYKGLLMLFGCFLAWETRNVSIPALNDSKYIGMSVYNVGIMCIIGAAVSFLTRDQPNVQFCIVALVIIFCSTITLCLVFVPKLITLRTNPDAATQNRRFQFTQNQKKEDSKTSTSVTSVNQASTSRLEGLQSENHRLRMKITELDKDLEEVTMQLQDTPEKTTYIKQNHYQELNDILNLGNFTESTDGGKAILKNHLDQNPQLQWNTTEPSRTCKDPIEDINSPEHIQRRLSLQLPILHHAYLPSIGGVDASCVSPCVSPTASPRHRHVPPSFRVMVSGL
Method: (§1) Intracellular Ca^2+ Mobilization Assay
(§2) The Chinese Hamster Ovary (CHO) cells stably expressing human GABABR1aR2a and Gα16 were seeded at 5×10^4 cells/well in the poly-D-lysine treated, 96-well, black/clear-bottomed plates (BD Biosciences, Palo Alto, Calif.). […] Probenecid (250 mM) (catalog No. P8761) was from Sigma, Buchs, Switzerland. […] The enhancers were applied 15 min before the application of the GABA. For GABA shift assay, concentration-response curves of GABA (0.0003-30 μM) were determined in the absence and presence of 10 μM enhancer. […] Responses were measured as peak increase in fluorescence minus basal, normalized to the maximal stimulatory effect induced by 10 μM GABA alone (considered 100%) and 10 nM GABA alone (considered 0%).

[2] = target: T1, human GABABR1aR2a; experiment: GABA shift assay (GABA concentration-response with and without 10 μM enhancer, FLIPR Ca2+ mobilization in CHO-GABABR1aR2a-Gα16 cell); format: cell-based; conditions: GABA 0.0003-30 μM, log ratio
Method: as §1, §2

| Structure (SMILES) | EC50 [1] [µM] | Emax [1] [%] | GABA shift Log [EC50 (GABA + 10 μM cp)/EC50 (GABA alone)] [2] |
| --- | --- | --- | --- |
| CC(C)(C)c1cc(C(C)(C)C)c(O)c(C(O)(C(=O)O)C(F)(F)F)c1 (racemic) [Example 3, (R,S)-2-(3,5-Di-tert-butyl-2-hydroxy-phenyl)-3,3,3-trifluoro-2-hydroxy-propionic acid] | 0.32 | 70 | −1 |
| COC(=O)C(O)(c1cc(C(C)(C)C)cc(C(C)(C)C)c1)C(F)(F)F (racemic) [Example 7, (R,S)-2-(3,5-Di-tert-butyl-phenyl)-3,3,3-trifluoro-2-hydroxy-propionic acid methyl ester] | 2.1 | 66 | −0.9 |
| Cc1cc(C(C)(C)C)c2c(c1)C(O)(C(F)(F)F)C(=O)O2 (racemic) [Example 9, (R,S)-7-tert-Butyl-3-hydroxy-5-methyl-3-trifluoromethyl-3H-benzofuran-2-one] | 0.36 | 62 | −1.3 |
